# Assay results taken from patent publication US9676789B2, “Aminated derivative of homoharringtonine, preparation method therefor, and application thereof” (HANGZHOU BENSHENG PHARMACEUTICAL CO., LTD., priority 2011, dated 2017).
# What was measured:
# [1] = test system: H9 (acute lymphoblastic leukemia, ALL); assay: MTT leukemia cell growth inhibition, 72 h; format: cell-based, human; conditions: Homo sapiens, H9, 72 h; for IC50: read-out: IC50; for IC90: read-out: IC90
# Outline: (§1)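 Cells were seeded at 6000 per well in RPMI-1640 with 10% FBS and exposed to homoharringtonine derivatives at various concentrations for 72 h at 37°C, 5% CO2. Viable cells were measured by MTT. Untreated controls were set as 100% viability.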
# [2] = test system: Jurkat (acute lymphoblastic leukemia, ALL); assay: MTT leukemia cell growth inhibition, 72 h; format: cell-based, human; conditions: Homo sapiens; for IC50: read-out: IC50; for IC90: read-out: IC90
# Outline: as §1
# [3] = test system: K562/adr (drug-resistant, chronic myeloid leukemia, CML); assay: MTT leukemia cell growth inhibition, 72 h; format: cell-based, human; conditions: Homo sapiens, K562/Adr; for IC50: read-out: IC50; for IC90: read-out: IC90
# Outline: as §1
# [4] = test system: Kasumi-1 (acute myeloid leukemia M2 type, AML-M2); assay: MTT leukemia cell growth inhibition, 72 h; format: cell-based, human; conditions: Homo sapiens, Kasumi-1, 72 h; for IC50: read-out: IC50; for IC90: read-out: IC90
# Outline: as §1
# [5] = test system: NB4 (acute promyelocytic leukemia, AML); assay: MTT leukemia cell growth inhibition, 72 h; format: cell-based, human; conditions: Homo sapiens, NB4, 72 h; for IC50: read-out: IC50; for IC90: read-out: IC90
# Outline: as §1
# [6] = test system: RPMI8226 (multiple myeloma); assay: MTT multiple myeloma cell growth inhibition, 72 h; format: cell-based, human; conditions: Homo sapiens, RPMI-8226, RPMI8226, 72 h; for IC50: read-out: IC50; for IC90: read-out: IC90
# Outline: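 RPMI8226 cells at 6000 per well in 1640 medium with 10% fetal bovine serum, exposed to homoharringtonine derivatives at various concentrations. Incubation 72 h at 37° C, 5% CO2; viable cells read by MTT.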
# A549 (human lung cancer) = assay: MTT solid tumor cell growth inhibition, 72 h; format: cell-based; conditions: Homo sapiens, A549, 72 h; for IC50: read-out: IC50; for IC90: read-out: IC90
# Outline: (§2)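 Cells seeded at 4000 per well in DMEM high glucose with 10% FBS were grown 24 h at 37° C, 5% CO2, then exposed to homoharringtonine derivatives at various concentrations for 72 h. Viable cells were measured by MTT, and viability (%) was expressed relative to untreated controls set at 100%.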
# [7] = test system: Becap37 (human breast cancer cell); assay: MTT solid tumor cell growth inhibition, 72 h; format: cell-based; conditions: Homo sapiens, Becap37, 72 h; for IC50: read-out: IC50; for IC90: read-out: IC90
# Outline: as §2
# [8] = test system: Hela (human cervical cancer cell); assay: MTT solid tumor cell growth inhibition, 72 h; format: cell-based; conditions: Homo sapiens, HeLa; for IC50: read-out: IC50; for IC90: read-out: IC90
# Outline: as §2
# [9] = test system: Hep-2 (human hepatocellular carcinoma); assay: MTT solid tumor cell growth inhibition, 72 h; format: cell-based; conditions: Homo sapiens, HEp-2, Hep2, 72 h; for IC50: read-out: IC50; for IC90: read-out: IC90
# Outline: as §2
# [10] = test system: Huh7 (human liver cancer cell); assay: MTT solid tumor cell growth inhibition, 72 h; format: cell-based; conditions: Homo sapiens, Huh-7, Huh7, 72 h; for IC50: read-out: IC50; for IC90: read-out: IC90
# Outline: as §2
# [11] = test system: MGC 803 (human gastric cancer cell); assay: MTT solid tumor cell growth inhibition, 72 h; format: cell-based; conditions: Homo sapiens, MGC 803, 72 h; for IC50: read-out: IC50; for IC90: read-out: IC90
# Outline: as §2
# [12] = test system: RKO (human colon adenocarcinoma cell); assay: MTT solid tumor cell growth inhibition, 72 h; format: cell-based; conditions: Homo sapiens; for IC50: read-out: IC50; for IC90: read-out: IC90
# Outline: as §2
# [13] = test system: CNE (nasopharyngeal carcinoma cell); assay: MTT solid tumor cell growth inhibition, 72 h; format: cell-based, human; conditions: Homo sapiens; for IC50: read-out: IC50; for IC90: read-out: IC90
# Outline: as §2
# [14] = test system: CaES-17 (esophageal cancer cell); assay: MTT solid tumor cell growth inhibition, 72 h; format: cell-based, human; conditions: Homo sapiens, CaEs17, CaES-17, 72 h; for IC50: read-out: IC50; for IC90: read-out: IC90
# Outline: as §2
# MG63 (osteosarcoma) = assay: MTT solid tumor cell growth inhibition, 72 h; format: cell-based, human; conditions: Homo sapiens, MG 63, 72 h; for IC50: read-out: IC50; for IC90: read-out: IC90
# Outline: as §2
# [15] = test system: PANC-1 (pancreatic cancer); assay: MTT solid tumor cell growth inhibition, 72 h; format: cell-based, human; conditions: Homo sapiens, PANC-1, 72 h; for IC50: read-out: IC50; for IC90: read-out: IC90
# Outline: as §2
# PC-3 (prostate cancer) = assay: MTT solid tumor cell growth inhibition, 72 h; format: cell-based, human; conditions: Homo sapiens, PC-3, 72 h; for IC50: read-out: IC50; for IC90: read-out: IC90
# Outline: as §2
# [16] = test system: SK-OV-3 (ovarian cancer cell); assay: MTT solid tumor cell growth inhibition, 72 h; format: cell-based, human; conditions: Homo sapiens, SK-OV-3, 72 h; for IC50: read-out: IC50; for IC90: read-out: IC90
# Outline: as §2
# [17] = test system: U87 MG (malignant glioma cell); assay: MTT solid tumor cell growth inhibition, 72 h; format: cell-based, human; conditions: Homo sapiens, U-87 MG; for IC50: read-out: IC50; for IC90: read-out: IC90
# Outline: as §2
# [18] = test system: A549, PANC-1, Becap37, MG63, Huh7, RKO, Hela, CaES-17, CNE, Hep-2, PC-3 and SK-OV-3; assay: Anti-human solid tumor effect, summary over cell lines; format: cell-based; conditions: result in words, summary of Table 2
# Procedure: Human solid tumor cell lines: Hep-2 ([…]), A549 (human lung cancer), CaES-17 (esophageal cancer cell), PC-3 (prostate cancer), CNE (nasopharyngeal carcinoma cell), and SK-OV-3 (ovarian cancer cell), all of which are purchased from China Center For Type Culture Collection; RKO (human colon adenocarcinoma cell), MGC 803 (human gastric cancer cell), MG63 (osteosarcoma) and U87 MG (malignant glioma cell), all of which are purchased from Fuxiang Bio-tech Co. Ltd., Shanghai, China; PANC-1 (pancreatic cancer), Huh7 (human liver cancer cell), Becap37 (human breast cancer cell), and Hela (human cervical cancer cell), all of which are donated by Cancer Research Institute of Zhejiang University, China.
# Obtaining 4000 well-growing human solid tumor cells and inoculating them into wells of a 96-well cell culture plate. The culture medium is DMEM High Glucose cell culture medium containing 10% fetal bovine serum. The plate is placed in a carbon dioxide cell incubator (5% CO2) at 37° C. and incubating for 24 hours. After adding the homoharringtonine derivatives of different concentration and mixing uniformly, the plate is placed in a carbon dioxide cell incubator (5% CO2) at 37° C. and incubating for 72 hours. Then the viable cell concentration is determined by the MTT method and the cell viability (%) after drug treatment is calculated. In this experiment, the cell viability of control group (not treated with any compound) is set as 100%.
# [19] = test system: K562/adr, NB4, Kasumi-1 and H9; assay: Anti-leukemia activity, summary over cell lines; format: cell-based, human; conditions: result in words, summary of Table 1
# From the text: Leukemia cell lines: K562/adr (drug-resistant, chronic myeloid leukemia, CML), NB4 (acute promyelocytic leukemia, AML), Kasumi-1 (acute myeloid leukemia M2 type, AML-M2), Jurkat (acute lymphoblastic leukemia, ALL), all of which are donated by Cancer Research Institute of Zhejiang University, China; and H9 (acute lymphoblastic leukemia, ALL), which is purchased from China Center for Type Culture Collection.
# Obtaining 6000 well-growing leukemia cells and inoculating them into wells of a 96-well cell culture plate. The culture medium is the 1640 cell culture medium containing 10% fetal bovine serum. After adding the homoharringtonine derivatives of different concentrations and mixing uniformly, placing the plate in a carbon dioxide cell incubator (5% CO2) at 37° C. and incubating for 72 hours. Then the viable cell concentration is determined by the MTT method. In this experiment, the cell viability in control group (not treated with any compound) is set as 100%.
smiles,measurement,setting,value
"COC1=C[C@]23CCCN2CCc2cc4c(cc2[C@@H]3[C@@H]1OC(=O)[C@@](O)(CCCC(C)(C)O)CC(=O)N1CCN(c2ccc(F)cc2)CC1)OCO4 [BS-HH-046, O-3-[(2R)-2,6-dihydroxy-2-(2′-(4-(4-fluorophenyl)piperazinyl)-2′-oxoethyl)-6-methylheptanoyl]cephalotaxine]",IC50,[1],0.5 µg/mL
same,IC90,[1],7.84 µg/mL
same,IC50,[2],0.32 µg/mL
same,IC90,[2],15.2 µg/mL
same,IC50,[3],14.5 µg/mL
same,IC90,[3],> 16 µg/mL
same,IC50,[4],0.26 µg/mL
same,IC90,[4],2.26 µg/mL
same,IC50,[5],0.19 µg/mL
same,IC90,[5],0.5 µg/mL
same,IC50,[6],0.17 µg/mL
same,IC90,[6],0.72 µg/mL
same,IC50,A549 (human lung cancer),0.84 µg/mL
same,IC90,A549 (human lung cancer),> 16 µg/mL
same,IC50,[7],0.4 µg/mL
same,IC90,[7],> 16 µg/mL
same,IC50,[8],1.56 µg/mL
same,IC90,[8],> 16 µg/mL
same,IC50,[9],0.27 µg/mL
same,IC90,[9],> 16 µg/mL
same,IC50,[10],1.37 µg/mL
same,IC90,[10],> 16 µg/mL
same,IC50,[11],0.39 µg/mL
same,IC90,[11],8.28 µg/mL
same,IC50,[12],0.054 µg/mL
same,IC90,[12],0.93 µg/mL
same,IC50,[13],0.3 µg/mL
same,IC90,[13],16 µg/mL
same,IC50,[14],0.98 µg/mL
same,IC90,[14],16 µg/mL
same,IC50,MG63 (osteosarcoma),0.23 µg/mL
same,IC90,MG63 (osteosarcoma),> 16 µg/mL
same,IC50,[15],0.45 µg/mL
same,IC90,[15],> 16 µg/mL
same,IC50,PC-3 (prostate cancer),0.78 µg/mL
same,IC90,PC-3 (prostate cancer),> 16 µg/mL
same,IC50,[16],1.89 µg/mL
same,IC90,[16],> 16 µg/mL
same,IC50,[17],0.25 µg/mL
same,IC90,[17],> 16 µg/mL
same,"anti-A549, anti-PANC-1, anti-Becap37, anti-MG63, anti-Huh7, anti-RKO, anti-Hela, anti-CaES-17, anti-CNE, anti-Hep-2, anti-PC-3 and anti-SK-OV-3 effect",[18],strong
COC1=C[C@]23CCCN2CCc2cc4c(cc2[C@@H]3[C@@H]1OC(=O)[C@@](O)(CCCC(C)(C)O)CC(=O)N1CCC(N(C)C)CC1)OCO4 [BS-HH-050],IC50,[1],0.13 µg/mL
same,IC90,[1],0.35 µg/mL
same,IC50,[2],0.12 µg/mL
same,IC90,[2],16 µg/mL
same,IC50,[3],0.72 µg/mL
same,IC90,[3],8.99 µg/mL
same,IC50,[4],0.041 µg/mL
same,IC90,[4],0.18 µg/mL
same,IC50,[5],0.08 µg/mL
same,IC90,[5],0.17 µg/mL
same,IC50,[6],0.1 µg/mL
same,IC90,[6],0.38 µg/mL
same,IC50,A549 (human lung cancer),0.7 µg/mL
same,IC90,A549 (human lung cancer),> 16 µg/mL
same,IC50,[7],0.26 µg/mL
same,IC90,[7],16 µg/mL
same,IC50,[8],0.46 µg/mL
same,IC90,[8],> 16 µg/mL
same,IC50,[9],0.31 µg/mL
same,IC90,[9],> 16 µg/mL
same,IC50,[10],0.1 µg/mL
same,IC90,[10],16 µg/mL
same,IC50,[11],0.18 µg/mL
same,IC90,[11],0.48 µg/mL
same,IC50,[12],0.053 µg/mL
same,IC90,[12],0.23 µg/mL
same,IC50,[13],0.15 µg/mL
same,IC90,[13],> 16 µg/mL
same,IC50,[14],0.46 µg/mL
same,IC90,[14],16 µg/mL
same,IC50,MG63 (osteosarcoma),0.19 µg/mL
same,IC90,MG63 (osteosarcoma),7.22 µg/mL
same,IC50,[15],0.23 µg/mL
same,IC90,[15],> 16 µg/mL
same,IC50,PC-3 (prostate cancer),0.45 µg/mL
same,IC90,PC-3 (prostate cancer),> 16 µg/mL
same,IC50,[16],0.57 µg/mL
same,IC90,[16],> 16 µg/mL
same,IC50,[17],0.24 µg/mL
same,IC90,[17],1.06 µg/mL
same,"anti-K562/adr, anti-NB4, anti-Kasumi-1 and anti-H9 activity",[19],strong
same,"anti-A549, anti-PANC-1, anti-Becap37, anti-MG63, anti-Huh7, anti-RKO, anti-Hela, anti-CaES-17, anti-CNE, anti-Hep-2, anti-PC-3 and anti-SK-OV-3 effect",[18],strong
